Experiment [1] concerns the target T1, BTK (Homo sapiens (Human), UniProt Q06187). Kind of experiment: Mass spectrometry for BTK (intact protein, covalent modification). As to conditions: intact BTK, 1 hr, 10× fold excess of compound. The class given is binding. The procedure:
Mass Spectrometry for BTK
Intact BTK was incubated for 1 hr at a 10× fold excess of I-7 to protein. Aliquots (2 μl) of the samples were diluted with 10 μl of 0.1% TFA prior to micro C4 ZipTipping directly onto the MALDI target using Sinapinic acid as the desorption matrix (10 mg/ml in 0.1% TFA:Acetonitrile 20:80).

The target in experiment [2] is T1, BTK. In words: Washout experiment with Ramos cells (PLCγ2 phosphorylation). The experiment is classed as cell-based. The following applies: Ramos washout assay, 100 nM compound for 1 hour. The procedure: Washout Experiment with Ramos Cells
Ramos cells were serum starved for one hour in RPMI media +1% glutamine at 37° C. After starvation, Ramos cells were treated with 100 nM compound diluted in serum free RPMI media for 1 hour. After compound treatment, the media was removed and cells were washed with compound-free media. Subsequently, Ramos cells were washed every 2 hours and resuspended in fresh compound-free media. Cells were collected at specified timepoints, treated with 1 ug anti-human IgM (Southern Biotech cat #2022-01) for 10 minutes on ice to induce BCR signaling and then washed in PBS. Ramos cells were then lysed in Cell Extraction Buffer (Invitrogen FNN0011) supplemented with Roche complete protease inhibitor tablets (Roche 11697498001) and phosphatase inhibitors (Roche 04 906 837 001) and 18 ug total protein lysate was loaded in each lane. Inhibition of BTK kinase activity was assayed by measuring its substrate (PLCγ2) phosphorylation by western blot with phospho-specific antibodies from Cell Signaling Technologies cat#3871. The results of this experiment with compounds I-2, I-4 and I-7 are depicted in FIGS. 1, 2 and 3.

T1 sequence (Q06187 whole entry): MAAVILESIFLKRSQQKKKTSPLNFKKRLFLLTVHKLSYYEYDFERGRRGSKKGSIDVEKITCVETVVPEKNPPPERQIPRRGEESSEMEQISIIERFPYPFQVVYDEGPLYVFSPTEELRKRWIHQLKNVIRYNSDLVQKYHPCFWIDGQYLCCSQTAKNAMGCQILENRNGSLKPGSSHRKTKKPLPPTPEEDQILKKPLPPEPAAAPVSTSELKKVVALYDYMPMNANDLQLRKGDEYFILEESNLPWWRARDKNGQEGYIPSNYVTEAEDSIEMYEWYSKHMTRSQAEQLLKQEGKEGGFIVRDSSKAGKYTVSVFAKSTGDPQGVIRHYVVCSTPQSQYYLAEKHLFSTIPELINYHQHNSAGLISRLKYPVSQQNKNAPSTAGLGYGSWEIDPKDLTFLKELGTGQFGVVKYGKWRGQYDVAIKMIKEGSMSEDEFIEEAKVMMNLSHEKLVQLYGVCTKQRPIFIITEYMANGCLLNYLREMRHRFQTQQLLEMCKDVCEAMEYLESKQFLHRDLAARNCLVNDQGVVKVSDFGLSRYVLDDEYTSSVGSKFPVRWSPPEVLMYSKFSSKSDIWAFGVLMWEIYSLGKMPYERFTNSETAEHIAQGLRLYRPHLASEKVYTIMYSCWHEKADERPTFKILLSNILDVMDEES

As to `C=C(C#N)C(O)c1ccc(Nc2nc(Nc3ccccc3)ncc2F)cc1` (centres unmarked) [Compound I-161, 2-((4-(5-fluoro-2-(phenylamino)pyrimidin-4-ylamino)phenyl)(hydroxy)methyl)acrylonitrile], at BTK [1], the “covalent modification of BTK by mass spectrometry” value (“covalent modification of BTK” below) is “completely modify”. On to `C=CC(=O)Nc1cccc(Oc2nc(Nc3ccccc3)ncc2F)c1` [Compound I-228, N-(3-(5-fluoro-2-(phenylamino)pyrimidin-4-yloxy)phenyl)acrylamide], for which the “BTK Inhibition Type” value on BTK [2] is recorded as “irreversible”. In the case of `Cc1cnc(Nc2ccccc2)nc1Nc1cccc(NC(=O)/C=C/CN(C)C)c1` [Compound I-38, (E)-4-(dimethylamino)-N-(3-(5-methyl-2-(phenylamino)pyrimidin-4-ylamino)phenyl)but-2-enamide], the “BTK Inhibition Type” value on BTK [2] is on record as “reversible”. Turning to `C=CC(=O)Nc1cccc(Nc2nc(Nc3cccc(OC(F)(F)F)c3)ncc2F)c1` [Compound I-244, N-(3-(5-fluoro-2-(3-(trifluoromethoxy)phenylamino)pyrimidin-4-ylamino)phenyl)acrylamide], the “covalent modification of BTK” value on BTK [1] is listed as “completely modify”. On the same count and under the same terms, the entry for “2-((4-(5-fluoro-2-(3-trifluoromethoxyphenylamino)pyrimidin-4-ylamino)phenyl)(hydroxy)methyl)acrylonitrile [Compound I-163]” is “completely modify”. On to `C#CCOc1cccc(Nc2ncc(C)c(Nc3cccc(NC(=O)C=C)c3)n2)c1` [Compound I-35, N-(3-(5-methyl-2-(3-(prop-2-ynyloxy)phenylamino)pyrimidin-4-ylamino)phenyl) acrylamide], for which, at BTK [2], the “BTK Inhibition Type” value is “irreversible”.

Turning to `C=CC(=O)Nc1cccc(Nc2nc(Nc3ccccc3)ncc2F)c1` [Compound I-28, N-(3-(5-fluoro-2-(phenylamino)pyrimidin-4-ylamino)phenyl)acrylamide], the “BTK Inhibition Type” value at BTK [2] is given as “irreversible”. For the molecule `C=CC(=O)N1CCC[C@@H](Nc2nc(Nc3cccc(OC)c3)ncc2F)C1` [Compound I-195, (R)-1-(3-(5-fluoro-2-(3-methoxyphenylamino)pyrimidin-4-ylamino)piperidin-1-yl)prop-2-en-1-one], the “covalent modification of BTK” value at BTK [1] is “completely modify”. Consider `C=CC(=O)Nc1cccc(Nc2nc(Nc3cccc(OC)c3)ncc2C(F)(F)F)c1` [Compound I-242, N-(3-(5-trifluoromethyl-2-(3-methoxyphenylamino)pyrimidin-4-ylamino)phenyl)acrylamide], for which the “BTK Inhibition Type” value at BTK [2] is recorded as “irreversible”. For the molecule `C=CC(=O)Nc1cccc(Nc2nc(Nc3ccc(F)cc3)ncc2F)c1` [Compound I-247, N-(3-(5-fluoro-2-(4-fluorophenylamino)pyrimidin-4-ylamino)phenyl)acrylamide], the “BTK Inhibition Type” value on BTK [2] is “irreversible”. For `C=CC(=O)N1CCOc2ccc(Nc3ncc(F)c(Nc4cccc(Cl)c4)n3)cc21` [Compound I-149, 1-(6-(4-(3-chlorophenylamino)-5-fluoropyrimidin-2-ylamino)-2H-benzo[b][1,4]oxazin-4(3H)-yl)prop-2-en-1-one], on BTK [1], the “covalent modification of BTK” value is given as “completely modify”.

Regarding `C=C(C#N)C(O)c1cccc(Nc2nc(Nc3ccc(OCCOC)cc3)ncc2F)c1` (centres unmarked) [Compound I-71, 2-((3-(5-fluoro-2-(4-(2-methoxyethoxy)phenylamino)pyrimidin-4-ylamino)phenyl)(hydroxy)methyl)acrylonitrile], on BTK [1], the “covalent modification of BTK” value is listed as “completely modify”.

Regarding `CC(C)=CC(=O)c1cccc(Nc2nc(Nc3cccc(OCCN(C)C)c3)ncc2F)c1` [Compound I-207], the “covalent modification of BTK” value on BTK [1] is “completely modify”.

`C=CC(=O)N(C)Cc1ccc(Nc2nc(Nc3ccccc3)ncc2C)cc1` [Compound I-219, N-methyl-N-(4-(5-methyl-2-(phenylamino)pyrimidin-4-ylamino)benzyl)acrylamide]: the “covalent modification of BTK” value at BTK [1] was “completely modify”.
